Assay results taken from patent US12595253B2, “Benzamides of pyrazolylamino-pyrimidinyl derivatives, and compositions and methods thereof” (LYNK PHARMACEUTICALS CO. LTD., priority 2019, dated 2026).

Experiments:
Assay type in all cases: biochemical
JAK1 = target: T1, JAK1 (Homo sapiens, UniProt P23458); experiment: JAK1 microfluidic kinase assay (Caliper EZ Reader II, FAM labeled peptide substrate); conditions: IC50 JAK1 (5 nM) (1 m MATP), JAK1 5 nM, 1 mM ATP
T1 construct: purchased Carna Biosciences
Method in brief: (§1)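 Microfluidic mobility-shift assay on Caliper EZ Reader II, FAM-labelled peptide phosphorylation, in 50 mM HEPES, 0.01% Brij35, 10 mM MgCl2, 2 mM DTT, 1% DMSO; enzyme conditions set for 10% substrate conversion.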

JAK2 = target: T2, JAK2 (Homo sapiens, UniProt O60674); experiment: JAK2 microfluidic kinase assay (Caliper EZ Reader II, FAM labeled peptide substrate); conditions: IC50 JAK2 ([…]) (1 mM ATP), 1 mM ATP
T2 construct: purchased Carna Biosciences
Method in brief: as §1

TYK2 = target: T3, TYK2 (Homo sapiens, UniProt P29597); experiment: TYK2 microfluidic kinase assay (Caliper EZ Reader II, FAM labeled peptide substrate)
T3 construct: purchased Carna Biosciences
Description: Compounds were tested against JAK1, JAK2, JAK2V617F and TYK2. Assay Formats: JAK activity was determined in the reaction buffer 50 mM HEPES, 0.01% Brij35, 10 mM MgCl2, 2 mM DTT by a microfluidic assay. The phosphorylation of a FAM labeled peptide substrate was monitored in the Caliper EZ Reader II (Perkin Elmer). The assay condition for each batch of enzyme (Carna Biosciences) was optimized to obtain 10% conversion rate of peptide substrate. The test compounds were dissolved in DMSO to a stock concentration of 10 mM. 3-fold serially diluted compounds with top concentration of 5 μM were pre-incubated with JAK1, JAK2, JAK2V617F or TYK2 at indicated concentrations for 10 min at ambient temperature. The final DMSO concentration of assay mixture was 1%. […] The reaction was stopped by adding 50 mM EDTA. The reaction time for JAK1, JAK2, JAK2V617F and TYK2 was 120 min, 20 min, 30 min and 10 min, respectively. […] And the well without compound but with equivalent DMSO was defined as no inhibition. The percent inhibition was calculated by the following formula. % Inhibition=(Conversionmax−Conversionsample)/(Conversionmax−Conversionmin)*100 • Conversionmax means the conversion rate in the positive well without addition of compound • Conversionmin means the conversion rate in the well without addition of enzyme • Conversionsample means the conversion rate of test compounds The dose-response (percent inhibition) curve was plotted and IC50 values were determined by GraphPad software.

[1] = IC50 TYK2 ([…]) (1 mM ATP), TYK2 […], 1 mM ATP

T2 sequence (O60674 whole entry): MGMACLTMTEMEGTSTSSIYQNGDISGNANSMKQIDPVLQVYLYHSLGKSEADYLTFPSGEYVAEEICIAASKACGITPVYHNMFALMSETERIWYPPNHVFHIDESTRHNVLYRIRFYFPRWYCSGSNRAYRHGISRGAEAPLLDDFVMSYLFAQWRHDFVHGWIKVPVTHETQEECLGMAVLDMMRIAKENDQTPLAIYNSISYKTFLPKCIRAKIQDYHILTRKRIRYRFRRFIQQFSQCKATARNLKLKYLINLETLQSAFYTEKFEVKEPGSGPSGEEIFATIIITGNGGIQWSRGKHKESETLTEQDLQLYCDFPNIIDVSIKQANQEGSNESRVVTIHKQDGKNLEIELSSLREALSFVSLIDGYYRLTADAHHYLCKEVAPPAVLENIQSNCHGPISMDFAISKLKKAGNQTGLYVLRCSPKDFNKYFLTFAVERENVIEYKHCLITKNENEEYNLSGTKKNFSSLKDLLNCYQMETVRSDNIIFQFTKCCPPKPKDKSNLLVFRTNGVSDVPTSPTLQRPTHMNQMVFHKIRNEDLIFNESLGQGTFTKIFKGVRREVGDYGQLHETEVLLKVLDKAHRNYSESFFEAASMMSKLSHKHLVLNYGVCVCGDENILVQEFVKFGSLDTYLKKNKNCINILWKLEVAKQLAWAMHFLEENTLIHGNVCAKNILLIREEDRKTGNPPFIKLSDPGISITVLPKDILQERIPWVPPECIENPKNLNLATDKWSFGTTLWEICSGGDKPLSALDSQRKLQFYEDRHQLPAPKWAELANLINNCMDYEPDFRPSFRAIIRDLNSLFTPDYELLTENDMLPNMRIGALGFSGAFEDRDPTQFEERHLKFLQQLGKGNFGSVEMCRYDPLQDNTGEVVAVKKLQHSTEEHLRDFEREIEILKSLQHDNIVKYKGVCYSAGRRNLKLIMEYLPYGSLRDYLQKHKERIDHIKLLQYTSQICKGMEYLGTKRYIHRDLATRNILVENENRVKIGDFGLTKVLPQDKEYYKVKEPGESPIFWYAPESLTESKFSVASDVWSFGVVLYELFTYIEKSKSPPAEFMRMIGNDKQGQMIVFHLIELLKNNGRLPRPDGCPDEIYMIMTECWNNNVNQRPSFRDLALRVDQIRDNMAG
T3 sequence (P29597 whole entry): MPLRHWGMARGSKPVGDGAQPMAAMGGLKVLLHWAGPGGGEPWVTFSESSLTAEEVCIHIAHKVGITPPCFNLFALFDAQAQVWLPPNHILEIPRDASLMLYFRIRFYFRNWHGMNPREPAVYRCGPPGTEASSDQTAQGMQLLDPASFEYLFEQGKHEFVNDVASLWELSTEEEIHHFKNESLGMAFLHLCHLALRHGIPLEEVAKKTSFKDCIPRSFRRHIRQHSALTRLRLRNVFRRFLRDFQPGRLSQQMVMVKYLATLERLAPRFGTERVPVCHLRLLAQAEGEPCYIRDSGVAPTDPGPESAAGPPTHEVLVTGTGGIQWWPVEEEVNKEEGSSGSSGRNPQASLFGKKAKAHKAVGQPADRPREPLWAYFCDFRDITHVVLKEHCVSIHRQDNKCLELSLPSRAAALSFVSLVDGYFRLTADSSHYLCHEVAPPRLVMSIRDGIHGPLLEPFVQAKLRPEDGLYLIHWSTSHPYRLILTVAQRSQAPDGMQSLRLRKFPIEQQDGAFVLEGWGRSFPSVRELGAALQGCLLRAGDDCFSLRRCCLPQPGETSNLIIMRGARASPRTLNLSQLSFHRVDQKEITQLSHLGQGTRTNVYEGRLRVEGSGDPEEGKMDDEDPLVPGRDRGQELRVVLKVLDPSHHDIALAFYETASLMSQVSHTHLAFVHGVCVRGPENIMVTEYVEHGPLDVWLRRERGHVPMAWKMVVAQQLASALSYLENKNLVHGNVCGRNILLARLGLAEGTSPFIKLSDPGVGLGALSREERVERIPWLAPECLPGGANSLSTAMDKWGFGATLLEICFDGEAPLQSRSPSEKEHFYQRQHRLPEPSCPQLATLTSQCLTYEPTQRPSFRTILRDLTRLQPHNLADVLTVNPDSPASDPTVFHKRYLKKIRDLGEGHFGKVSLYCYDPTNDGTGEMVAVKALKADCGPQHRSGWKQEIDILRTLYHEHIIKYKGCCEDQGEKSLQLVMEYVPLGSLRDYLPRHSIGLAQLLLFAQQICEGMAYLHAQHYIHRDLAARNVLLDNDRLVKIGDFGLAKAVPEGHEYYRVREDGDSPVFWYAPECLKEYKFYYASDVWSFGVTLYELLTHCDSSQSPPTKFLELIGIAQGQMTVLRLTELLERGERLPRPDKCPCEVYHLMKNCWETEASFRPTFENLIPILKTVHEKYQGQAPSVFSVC
T1 sequence (P23458 whole entry): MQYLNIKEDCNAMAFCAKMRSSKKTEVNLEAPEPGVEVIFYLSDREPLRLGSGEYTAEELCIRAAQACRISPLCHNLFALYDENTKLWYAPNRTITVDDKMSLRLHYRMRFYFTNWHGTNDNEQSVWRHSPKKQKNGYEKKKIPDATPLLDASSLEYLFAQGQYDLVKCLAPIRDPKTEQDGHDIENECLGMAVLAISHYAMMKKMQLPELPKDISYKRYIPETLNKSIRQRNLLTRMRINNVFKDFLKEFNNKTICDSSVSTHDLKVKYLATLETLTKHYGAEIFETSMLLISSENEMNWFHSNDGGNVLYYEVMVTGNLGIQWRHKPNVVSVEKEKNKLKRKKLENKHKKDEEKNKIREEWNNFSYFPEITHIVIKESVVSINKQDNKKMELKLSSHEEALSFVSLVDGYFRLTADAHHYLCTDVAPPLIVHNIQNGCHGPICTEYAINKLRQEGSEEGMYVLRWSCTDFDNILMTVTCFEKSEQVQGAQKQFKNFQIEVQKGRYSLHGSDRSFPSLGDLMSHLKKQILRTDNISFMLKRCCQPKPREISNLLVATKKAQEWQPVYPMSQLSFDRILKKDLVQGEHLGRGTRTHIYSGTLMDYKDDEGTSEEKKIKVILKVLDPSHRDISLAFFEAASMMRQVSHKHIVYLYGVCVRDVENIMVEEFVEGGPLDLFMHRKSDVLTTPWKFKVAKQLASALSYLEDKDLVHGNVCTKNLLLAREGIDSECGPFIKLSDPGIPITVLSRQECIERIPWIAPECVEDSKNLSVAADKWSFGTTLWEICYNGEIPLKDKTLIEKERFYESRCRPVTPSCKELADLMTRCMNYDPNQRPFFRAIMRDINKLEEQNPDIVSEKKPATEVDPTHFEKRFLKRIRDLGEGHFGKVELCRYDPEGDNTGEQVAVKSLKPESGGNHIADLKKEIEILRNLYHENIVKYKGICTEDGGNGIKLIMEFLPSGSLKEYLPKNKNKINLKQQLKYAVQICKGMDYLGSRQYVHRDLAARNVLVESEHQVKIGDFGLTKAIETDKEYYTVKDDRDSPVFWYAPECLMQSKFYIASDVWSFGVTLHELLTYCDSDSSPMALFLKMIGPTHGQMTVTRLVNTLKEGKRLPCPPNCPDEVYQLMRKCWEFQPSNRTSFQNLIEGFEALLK

SMILES | IC50 (JAK1) | IC50 (JAK2) | IC50 (TYK2; [1]) | IC50 (TYK2; IC50 TYK2 (10 nM) (Km ATP), TYK2 10 nM, Km ATP)
COC[C@@H](C#N)NC(=O)c1ccc(-c2nc(Nc3cnn(CCO)c3)ncc2C)cc1 [Example 221, (R)—N-(1-cyano-2-methoxyethyl)-4-(2-((1-(2-hydroxyethyl)-1H-pyrazol-4-yl)amino)-5-methylpyrimidin-4-yl)benzamide] | 10.4 nM | 54.8 nM | 62.3 nM | –
C[C@@H](C#N)NC(=O)c1ccc(-c2nc(Nc3cnn(CCC#N)c3)ncc2Cl)cc1 [Example 189, (S)-4-(5-Chloro-2-((1-(2-cyanoethyl)-1H-pyrazol-4-yl)amino)pyrimidin-4-yl)-N-(1-cyanoethyl)benzamide] | 4.02 nM | 44 nM | 85 nM | –
CC[C@@H](C#N)NC(=O)c1ccc(-c2nc(Nc3cnn(CCC#N)c3)ncc2C)cc1 [Example 217, (S)-4-(2-((1-(2-cyanoethyl)-1H-pyrazol-4-yl)amino)-5-methylpyrimidin-4-yl)-N-(1-cyanopropyl)benzamide] | 2.71 nM | 39.8 nM | 40.9 nM | –
C[C@H](C#N)NC(=O)c1ccc(-c2nc(Nc3cnn(C4CCN(C)CC4)c3)ncc2Cl)cc1 [Example 58, (R)-4-(5-Chloro-2-((1-(1-methylpiperidin-4-yl)-1H-pyrazol-4-yl)amino)pyrimidin-4-yl)-N-(1-cyanoethyl)benzamide] | 34.8 nM | 42.2 nM | 272 nM | –
Cc1cnc(Nc2cnn(CCC#N)c2)nc1-c1ccc(C(=O)N[C@@H](C)C#N)cc1 [Example 216, (S)—N-(1-cyanoethyl)-4-(2-((1-(2-cyanoethyl)-1H-pyrazol-4-yl)amino)-5-methylpyrimidin-4-yl)benzamide] | 4.88 nM | 40.9 nM | 74 nM | –
Cc1cnc(Nc2cnn(C3CC3)c2)nc1-c1ccc(C(=O)N(C)CC#N)cc1 [Example 108, N-(cyanomethyl)-4-(2-((1-cyclopropyl-1H-pyrazol-4-yl)amino)-5-methylpyrimidin-4-yl)-N-methylbenzamide] | 628 nM | 461 nM | 1150 nM | –
CC[C@@H](C#N)NC(=O)c1ccc(-c2nc(Nc3cnn(C(C)C(F)(F)F)c3)ncc2C)cc1 (single isomer, unassigned) [Example 225, N—((S)-1-Cyanopropyl)-4-(5-methyl-2-((1-((R*)-1,1,1-trifluoropropan-2-yl)-1H-pyrazol-4-yl)amino)pyrimidin-4-yl)benzamide] | 8.95 nM | 42.6 nM | 66.9 nM | –
Cc1cnc(Nc2cn[nH]c2)nc1-c1ccc(C(=O)N[C@@H](C)C#N)cc1 [Example 199, (S)-4-(2-((1H-Pyrazol-4-yl)amino)-5-methylpyrimidin-4-yl)-N-(1-cyanoethyl)benzamide] | – | 30.8 nM | 30.2 nM | –
N#CCNC(=O)c1ccc(-c2nc(Nc3cnn(CC#N)c3)ncc2F)cc1 [Example 45, N-(cyanomethyl)-4-(2-((1-(cyanomethyl)-1H-pyrazol-4-yl)amino)-5-fluoropyrimidin-4-yl)benzamide] | 59.6 nM | 256 nM | 251 nM | –
C[C@@H](C#N)NC(=O)c1ccc(-c2nc(Nc3cnn(CC(N)=O)c3)ncc2Cl)cc1 [Example 47, (S)-4-(2-((1-(2-amino-2-oxoethyl)-1H-pyrazol-4-yl)amino)-5-chloropyrimidin-4-yl)-N-(1-cyanoethyl)benzamide] | 5.67 nM | 36.6 nM | 50.6 nM | –
Cc1cnc(Nc2cnn(CCO)c2)nc1-c1ccc(C(=O)N[C@H](C#N)C(C)C)cc1 [Example 191, (S)—N-(1-cyano-2-methylpropyl)-4-(2-((1-(2-hydroxyethyl)-1H-pyrazol-4-yl)amino)-5-methylpyrimidin-4-yl)benzamide] | 1.63 nM | 41.3 nM | 53.9 nM | –
N#CC1CN(C(=O)c2ccc(-c3nc(Nc4cnn(C5CC5)c4)ncc3C(F)F)cc2F)C1 [Example 126, 1-(4-(2-((1-Cyclopropyl-1H-pyrazol-4-yl)amino)-5-(difluoromethyl)pyrimidin-4-yl)-2-fluorobenzoyl)azetidine-3-carbonitrile] | – | – | – | 1770 nM

Second part, the molecule after the results:

IC50 (JAK1) | IC50 (JAK2) | IC50 (TYK2; [1]) | IC50 (TYK2; IC50 TYK2 (10 nM) (Km ATP), TYK2 10 nM, Km ATP) | SMILES
2.45 nM | 22.5 nM | 14.7 nM | – | CCC[C@@H](C#N)NC(=O)c1ccc(-c2nc(Nc3cnn(CCO)c3)ncc2C)cc1 [Example 192, (S)—N-(1-cyanobutyl)-4-(2-((1-(2-hydroxyethyl)-1H-pyrazol-4-yl)amino)-5-methylpyrimidin-4-yl)benzamide]
15.2 nM | < 0.25 nM | 50.6 nM | – | Cc1cnc(Nc2cnn(C3CCN(C(=O)CO)CC3)c2)nc1-c1ccc(C(=O)NCC#N)cc1 [Example 207, N-(cyanomethyl)-4-(2-((1-(1-(2-hydroxyacetyl)piperidin-4-yl)-1H-pyrazol-4-yl)amino)-5-methylpyrimidin-4-yl)benzamide]
1.48 nM | 0.51 nM | 2.22 nM | – | CCC[C@@H](C#N)NC(=O)c1ccc(-c2nc(Nc3cnn(C4CCNCC4)c3)ncc2C)cc1 [Example 175, (S)—N-(1-Cyanobutyl)-4-(5-methyl-2-((1-(piperidin-4-yl)-1H-pyrazol-4-yl)amino)pyrimidin-4-yl)benzamide]
2.93 nM | 0.79 nM | 3.15 nM | – | Cc1cnc(Nc2cnn(C3CCNCC3)c2)nc1-c1ccc(C(=O)N[C@H](C#N)C2CC2)cc1 [Example 156, (S)—N-(cyano(cyclopropyl)methyl)-4-(5-methyl-2-((1-(piperidin-4-yl)-1H-pyrazol-4-yl)amino)pyrimidin-4-yl)benzamide]
6.03 nM | 0.43 nM | < 0.25 nM | – | CC[C@@H](C#N)NC(=O)c1ccc(-c2nc(Nc3cnn(C4CC(C)(C)OC(C)(C)C4)c3)ncc2C)cc1 [Example 179, (S)—N-(1-cyanopropyl)-4-(5-methyl-2-((1-(2,2,6,6-tetramethyltetrahydro-2H-pyran-4-yl)-1H-pyrazol-4-yl)amino)pyrimidin-4-yl)benzamide]
13 nM | < 0.25 nM | 58 nM | – | N#CCNC(=O)c1ccc(-c2nc(Nc3cnn(C4CCN(C(=O)CO)CC4)c3)ncc2Cl)cc1 [Example 218, 4-(5-Chloro-2-((1-(1-(2-hydroxyacetyl)piperidin-4-yl)-1H-pyrazol-4-yl)amino)pyrimidin-4-yl)-N-(cyanomethyl)benzamide]
1.88 nM | 0.91 nM | 33.3 nM | – | Cc1cnc(Nc2cnn(C3CCN(CCO)CC3)c2)nc1-c1ccc(C(=O)N[C@@H](C)C#N)cc1 [Example 204, (S)—N-(1-cyanoethyl)-4-(2-((1-(1-(2-hydroxyethyl)piperidin-4-yl)-1H-pyrazol-4-yl)amino)-5-methylpyrimidin-4-yl)benzamide]
16.7 nM | < 0.25 nM | 0.55 nM | – | C[C@@H](C#N)NC(=O)c1ccc(-c2nc(Nc3cnn(C4CC(C)(C)OC(C)(C)C4)c3)ncc2Cl)cc1 [Example 206, (S)-4-(5-Chloro-2-((1-(2,2,6,6-tetramethyltetrahydro-2H-pyran-4-yl)-1H-pyrazol-4-yl)amino)pyrimidin-4-yl)-N-(1-cyanoethyl)benzamide]
1.35 nM | 0.85 nM | 1.1 nM | – | CCC[C@@H](C#N)NC(=O)c1ccc(-c2nc(Nc3cnn(C4CCN(C)CC4)c3)ncc2C)cc1 [Example 176, (S)—N-(1-cyanobutyl)-4-(5-methyl-2-((1-(1-methylpiperidin-4-yl)-1H-pyrazol-4-yl)amino)pyrimidin-4-yl)benzamide]
